Columns and labels:
[1] = xn = mol fraction of the nth substance listed; conditions: 298.15 K, 101.33 kPa, Liquid
[2] = relative permittivity at various frequencies (dimensionless); xn = mol fraction of the nth substance listed; conditions: 298.15 K, 101.33 kPa, Liquid, Frequency=0.03 MHz, Parallel plate capacitor
[3] = 298.15 K; 101.33 kPa; Liquid

CCCCCCCCO [octan-1-ol] + CCCCCCCCCCCC
Conditions	mass density [kg/m3]	relative permittivity
[1], x1 = 0.00204	745.513	–
[1], x1 = 0.00419	745.594	–
[1], x1 = 0.00734	745.718	–
[1], x1 = 0.01454	746.026	–
[1], x1 = 0.02591	746.56	–
[1], x1 = 0.03144	746.83	–
[1], x1 = 0.04912	747.72	–
[1], x1 = 0.06408	748.489	–
[1], x1 = 0.08146	749.394	–
[1], x1 = 0.1014	750.468	–
[2], x1 = 0.000468	–	2.00782
[2], x1 = 0.000994	–	2.0085
[2], x1 = 0.00174	–	2.00946
[2], x1 = 0.002707	–	2.0107
[2], x1 = 0.003781	–	2.01209
[2], x1 = 0.005049	–	2.01375
[2], x1 = 0.006519	–	2.01566
[2], x1 = 0.008207	–	2.01774
[2], x1 = 0.009844	–	2.01966
[2], x1 = 0.01266	–	2.02275
[2], x1 = 0.01671	–	2.02679
[2], x1 = 0.02183	–	2.03146
[2], x1 = 0.02777	–	2.03652
[2], x1 = 0.03323	–	2.04101
[2], x1 = 0.0398	–	2.04628
[2], x1 = 0.04865	–	2.05338
[2], x1 = 0.05937	–	2.06205
[2], x1 = 0.06843	–	2.06953
[2], x1 = 0.0778	–	2.07741
[2], x1 = 0.08823	–	2.08648
[2], x1 = 0.09795	–	2.0952
[2], x1 = 0.111	–	2.10743

CCCO [propan-1-ol]
Conditions	mass density [kg/m3]
[3]	799.564

CCCCCCO [hexan-1-ol]
Conditions	mass density [kg/m3]
[3]	815.275

CCCCCCCO [heptan-1-ol]
Conditions	mass density [kg/m3]
[3]	818.746

CCCCCCCCCCCC [dodecane] + CO
Conditions	mass density [kg/m3]	relative permittivity
[1], x2 = 0.00135	745.406	–
[1], x2 = 0.00185	745.4	–
[1], x2 = 0.00406	745.379	–
[1], x2 = 0.00925	745.332	–
[1], x2 = 0.01113	745.324	–
[1], x2 = 0.01828	745.284	–
[1], x2 = 0.02969	745.265	–
[1], x2 = 0.0464	745.259	–
[1], x2 = 0.0642	745.271	–
[1], x2 = 0.08321	745.289	–
[1], x2 = 0.09518	745.306	–
[2], x2 = 0.000771	–	2.00822
[2], x2 = 0.001621	–	2.00927
[2], x2 = 0.00274	–	2.01066
[2], x2 = 0.003489	–	2.01159
[2], x2 = 0.004562	–	2.01293
[2], x2 = 0.005874	–	2.01448
[2], x2 = 0.008056	–	2.01694
[2], x2 = 0.01061	–	2.01951
[2], x2 = 0.0131	–	2.02187
[2], x2 = 0.01491	–	2.0235
[2], x2 = 0.01897	–	2.02697
[2], x2 = 0.02456	–	2.03155
[2], x2 = 0.03063	–	2.03644
[2], x2 = 0.03798	–	2.04263
[2], x2 = 0.04663	–	2.05023
[2], x2 = 0.05524	–	2.05834
[2], x2 = 0.06621	–	2.06954
[2], x2 = 0.08007	–	2.08561

CCCCCCCCCCCC [dodecane]
Conditions	mass density [kg/m3]
[3]	745.435

CCCCCCCCCCO [decan-1-ol]
Conditions	mass density [kg/m3]
[3]	826.421

CCCCCCCCO [octan-1-ol]
Conditions	mass density [kg/m3]
[3]	821.694

CCCCCCCCCCCC [dodecane] + CCCO
Conditions	mass density [kg/m3]	relative permittivity
[1], x2 = 0.00273	745.43	–
[1], x2 = 0.00429	745.426	–
[1], x2 = 0.007	745.424	–
[1], x2 = 0.01162	745.429	–
[1], x2 = 0.0181	745.456	–
[1], x2 = 0.0248	745.504	–
[1], x2 = 0.04304	745.689	–
[1], x2 = 0.06062	745.916	–
[1], x2 = 0.07866	746.164	–
[1], x2 = 0.1025	746.495	–
[2], x2 = 0.001113	–	2.00841
[2], x2 = 0.001805	–	2.00926
[2], x2 = 0.00262	–	2.01026
[2], x2 = 0.003582	–	2.01146
[2], x2 = 0.004766	–	2.01292
[2], x2 = 0.006045	–	2.01449
[2], x2 = 0.00741	–	2.01613
[2], x2 = 0.00918	–	2.01815
[2], x2 = 0.01131	–	2.0204
[2], x2 = 0.01408	–	2.02313
[2], x2 = 0.01818	–	2.02685
[2], x2 = 0.0234	–	2.03119
[2], x2 = 0.02953	–	2.03612
[2], x2 = 0.03486	–	2.04033
[2], x2 = 0.04243	–	2.04635
[2], x2 = 0.05033	–	2.05272
[2], x2 = 0.06022	–	2.06108
[2], x2 = 0.07048	–	2.07019
[2], x2 = 0.08292	–	2.08206
[2], x2 = 0.09516	–	2.09474
[2], x2 = 0.11	–	2.11157

CCCCCCCCCCO [decan-1-ol] + CCCCCCCCCCCC
Conditions	mass density, [1] [kg/m3]	relative permittivity, [2]
x1 = 0.001264	745.351	–
x1 = 0.001971	–	2.00974
x1 = 0.002235	745.401	–
x1 = 0.002902	–	2.01098
x1 = 0.003662	–	2.01199
x1 = 0.004525	–	2.01314
x1 = 0.00462	745.527	–
x1 = 0.005614	–	2.01459
x1 = 0.006788	–	2.01613
x1 = 0.007983	–	2.01764
x1 = 0.009268	–	2.0192
x1 = 0.01089	–	2.02107
x1 = 0.01183	745.934	–
x1 = 0.01283	–	2.02321
x1 = 0.01445	–	2.02492
x1 = 0.01654	–	2.027
x1 = 0.01864	–	2.029
x1 = 0.02121	–	2.03137
x1 = 0.02459	–	2.03426
x1 = 0.02958	–	2.03864
x1 = 0.0323	747.221	–
x1 = 0.03739	–	2.04514
x1 = 0.04685	–	2.05286
x1 = 0.05669	748.861	2.06088
x1 = 0.06704	–	2.06945
x1 = 0.07856	–	2.07915
x1 = 0.08334	750.666	–
x1 = 0.08846	–	2.08773
x1 = 0.1051	–	2.10262
x1 = 0.1069	752.273	–

CCCCCCCCCCCC [dodecane] + CCCCCO
Conditions	mass density [kg/m3]	relative permittivity
[1], x2 = 0.00199	745.463	–
[1], x2 = 0.00476	745.503	–
[1], x2 = 0.00753	745.546	–
[1], x2 = 0.01643	745.714	–
[1], x2 = 0.02691	745.951	–
[1], x2 = 0.03525	746.159	–
[1], x2 = 0.05055	746.571	–
[1], x2 = 0.06514	746.983	–
[1], x2 = 0.08115	747.444	–
[1], x2 = 0.09931	747.979	–
[2], x2 = 0.000482	–	2.00767
[2], x2 = 0.001089	–	2.00844
[2], x2 = 0.001796	–	2.00932
[2], x2 = 0.002589	–	2.01032
[2], x2 = 0.00344	–	2.0114
[2], x2 = 0.004549	–	2.0128
[2], x2 = 0.005875	–	2.01448
[2], x2 = 0.007295	–	2.01623
[2], x2 = 0.009216	–	2.0185
[2], x2 = 0.01162	–	2.02114
[2], x2 = 0.0141	–	2.02365
[2], x2 = 0.01688	–	2.02629
[2], x2 = 0.0211	–	2.03003
[2], x2 = 0.02571	–	2.03388
[2], x2 = 0.03208	–	2.03903
[2], x2 = 0.03962	–	2.045
[2], x2 = 0.04963	–	2.05298
[2], x2 = 0.05931	–	2.0609
[2], x2 = 0.07029	–	2.07011
[2], x2 = 0.08177	–	2.08023
[2], x2 = 0.09402	–	2.09162
[2], x2 = 0.1068	–	2.10429
